Experimental data taken from ChEMBL document CHEMBL1143329, “Discovery and SAR of benzyl phenyl ethers as inhibitors of bacterial phenylalanyl-tRNA synthetase” (Bioorg Med Chem Lett, 2009).
Converted amounts (≈) assume the structure as drawn.

Assays:
[1] = Inhibition of Haemophilus influenzae phenylalanyl-tRNA synthetase
[2] = Inhibition of Streptococcus pneumoniae phenylalanyl-tRNA synthetase
[3] = Apparent intrinsic clearance in human liver microsomes; format: ADME, Microsome
[4] = Membrane permeability by PAMPA; format: ADME; conditions: for Papp: read-out: Activity
[5] = target: Voltage-gated inwardly rectifying potassium channel KCNH2 (Homo sapiens, UniProt Q12809); test: Displacement of [3H]dofetilide from human ERG channel
Cytochrome P450 1A2 = target: T1, Cytochrome P450 1A2 (Homo sapiens, UniProt P05177); test: (§1) Inhibition of human CYP1A2 at 3 uM; format: ADME; conditions: 3 µM
T1 sequence (P05177 whole entry): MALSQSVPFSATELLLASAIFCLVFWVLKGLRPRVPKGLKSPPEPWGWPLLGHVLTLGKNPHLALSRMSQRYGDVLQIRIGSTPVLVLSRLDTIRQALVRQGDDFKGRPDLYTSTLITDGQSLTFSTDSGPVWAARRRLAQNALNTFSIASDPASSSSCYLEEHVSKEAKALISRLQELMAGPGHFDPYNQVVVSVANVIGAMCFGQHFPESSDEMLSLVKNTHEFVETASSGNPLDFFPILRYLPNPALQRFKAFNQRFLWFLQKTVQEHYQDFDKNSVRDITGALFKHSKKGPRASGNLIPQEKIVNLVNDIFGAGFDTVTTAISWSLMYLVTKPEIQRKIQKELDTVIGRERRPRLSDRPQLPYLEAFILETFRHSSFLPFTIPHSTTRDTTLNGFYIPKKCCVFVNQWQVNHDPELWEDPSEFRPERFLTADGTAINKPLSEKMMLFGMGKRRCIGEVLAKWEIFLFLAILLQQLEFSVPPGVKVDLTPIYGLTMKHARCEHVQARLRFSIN

Cytochrome P450 2C9 = Cytochrome P450 2C9 (Homo sapiens, UniProt P11712); test: Inhibition of human CYP2C9 at 3 uM; format: ADME
Cytochrome P450 2D6 = Cytochrome P450 2D6 (Homo sapiens, UniProt P10635); test: Inhibition of human CYP2D6 at 3 uM; format: ADME
Cytochrome P450 3A4 = Cytochrome P450 3A4 (Homo sapiens, UniProt P08684); test: Inhibition of human CYP3A4 at 3 uM; format: ADME
Haemophilus influenzae [6] = test: Antibacterial activity against AcrA pump deficient Haemophilus influenzae; format: functional
Haemophilus influenzae [7] = test: Antibacterial activity against wild type Haemophilus influenzae; format: functional
Streptococcus pneumoniae = test: Antibacterial activity against wild type Streptococcus pneumoniae; format: functional
hERG (KCNH2) = hERG (KCNH2) (Homo sapiens, UniProt Q12809); test: Displacement of [3H]dofetilide from human ERG channel at 10 nM; conditions: probe [3H]dofetilide, read-out: Activity
CYP1A2 = target: T2, CYP1A2 (Homo sapiens, UniProt P05177); test: as §1; format: ADME; conditions: read-out: Activity
T2 sequence (P05177 whole entry): T1 sequence (P05177 whole entry)

Sequence of Cytochrome P450 2C9 (P11712 whole entry): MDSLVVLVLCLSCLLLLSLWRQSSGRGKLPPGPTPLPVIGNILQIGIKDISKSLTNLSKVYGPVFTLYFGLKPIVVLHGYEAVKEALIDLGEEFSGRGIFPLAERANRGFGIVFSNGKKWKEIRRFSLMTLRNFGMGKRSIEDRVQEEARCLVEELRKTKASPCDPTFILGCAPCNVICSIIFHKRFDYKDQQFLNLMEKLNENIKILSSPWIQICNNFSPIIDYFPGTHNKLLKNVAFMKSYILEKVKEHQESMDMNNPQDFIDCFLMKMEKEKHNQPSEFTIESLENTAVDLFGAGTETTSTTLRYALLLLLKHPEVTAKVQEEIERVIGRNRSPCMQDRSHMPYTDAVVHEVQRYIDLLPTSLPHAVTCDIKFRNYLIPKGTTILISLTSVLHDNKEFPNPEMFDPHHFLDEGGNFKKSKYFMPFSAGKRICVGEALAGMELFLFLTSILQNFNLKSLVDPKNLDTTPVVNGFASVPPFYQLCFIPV
Sequence of Voltage-gated inwardly rectifying potassium channel KCNH2 (Q12809 whole entry): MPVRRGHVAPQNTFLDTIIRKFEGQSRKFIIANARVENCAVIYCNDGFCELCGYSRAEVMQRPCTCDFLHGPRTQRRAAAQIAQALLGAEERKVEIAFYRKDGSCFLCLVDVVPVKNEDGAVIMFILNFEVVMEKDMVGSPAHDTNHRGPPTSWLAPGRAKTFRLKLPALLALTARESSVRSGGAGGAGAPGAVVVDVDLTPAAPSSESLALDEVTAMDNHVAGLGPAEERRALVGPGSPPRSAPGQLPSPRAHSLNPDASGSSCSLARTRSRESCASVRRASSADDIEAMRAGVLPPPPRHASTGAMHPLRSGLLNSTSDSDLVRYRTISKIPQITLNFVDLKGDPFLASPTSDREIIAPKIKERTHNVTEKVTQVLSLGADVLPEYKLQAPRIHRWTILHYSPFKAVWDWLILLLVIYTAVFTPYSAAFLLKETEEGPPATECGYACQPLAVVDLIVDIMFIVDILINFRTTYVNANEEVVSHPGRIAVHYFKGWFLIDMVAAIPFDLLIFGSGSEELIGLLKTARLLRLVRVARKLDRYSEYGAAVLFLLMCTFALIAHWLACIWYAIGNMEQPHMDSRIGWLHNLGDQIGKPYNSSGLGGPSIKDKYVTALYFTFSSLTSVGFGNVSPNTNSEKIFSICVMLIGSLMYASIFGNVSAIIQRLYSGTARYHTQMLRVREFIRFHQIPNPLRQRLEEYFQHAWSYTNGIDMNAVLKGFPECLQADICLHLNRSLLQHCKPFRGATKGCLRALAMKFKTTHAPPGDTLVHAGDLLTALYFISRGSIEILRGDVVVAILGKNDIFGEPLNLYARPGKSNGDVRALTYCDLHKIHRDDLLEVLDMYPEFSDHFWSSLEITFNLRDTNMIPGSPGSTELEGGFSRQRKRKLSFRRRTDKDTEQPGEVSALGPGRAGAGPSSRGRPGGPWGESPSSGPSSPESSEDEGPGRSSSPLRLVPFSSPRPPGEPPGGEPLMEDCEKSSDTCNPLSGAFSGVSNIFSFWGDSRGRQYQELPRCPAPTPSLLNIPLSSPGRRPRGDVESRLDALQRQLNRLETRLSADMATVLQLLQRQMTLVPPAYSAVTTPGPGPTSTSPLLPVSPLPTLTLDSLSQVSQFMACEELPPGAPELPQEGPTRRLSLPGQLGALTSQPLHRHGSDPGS
Sequence of Cytochrome P450 3A4 (P08684 whole entry): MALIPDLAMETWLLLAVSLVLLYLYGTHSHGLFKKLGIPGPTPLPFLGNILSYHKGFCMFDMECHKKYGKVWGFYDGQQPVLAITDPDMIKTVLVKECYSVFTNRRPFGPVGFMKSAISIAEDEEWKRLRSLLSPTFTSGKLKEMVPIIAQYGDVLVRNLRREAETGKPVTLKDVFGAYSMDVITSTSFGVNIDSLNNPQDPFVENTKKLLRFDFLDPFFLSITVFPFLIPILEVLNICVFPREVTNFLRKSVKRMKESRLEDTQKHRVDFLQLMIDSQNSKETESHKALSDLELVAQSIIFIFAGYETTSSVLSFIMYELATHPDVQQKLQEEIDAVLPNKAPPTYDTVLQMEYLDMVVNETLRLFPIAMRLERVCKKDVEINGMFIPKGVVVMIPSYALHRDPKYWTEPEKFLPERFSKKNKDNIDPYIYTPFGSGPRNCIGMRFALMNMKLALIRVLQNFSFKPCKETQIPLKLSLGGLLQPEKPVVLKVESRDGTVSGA
Sequence of Cytochrome P450 2D6 (P10635 whole entry): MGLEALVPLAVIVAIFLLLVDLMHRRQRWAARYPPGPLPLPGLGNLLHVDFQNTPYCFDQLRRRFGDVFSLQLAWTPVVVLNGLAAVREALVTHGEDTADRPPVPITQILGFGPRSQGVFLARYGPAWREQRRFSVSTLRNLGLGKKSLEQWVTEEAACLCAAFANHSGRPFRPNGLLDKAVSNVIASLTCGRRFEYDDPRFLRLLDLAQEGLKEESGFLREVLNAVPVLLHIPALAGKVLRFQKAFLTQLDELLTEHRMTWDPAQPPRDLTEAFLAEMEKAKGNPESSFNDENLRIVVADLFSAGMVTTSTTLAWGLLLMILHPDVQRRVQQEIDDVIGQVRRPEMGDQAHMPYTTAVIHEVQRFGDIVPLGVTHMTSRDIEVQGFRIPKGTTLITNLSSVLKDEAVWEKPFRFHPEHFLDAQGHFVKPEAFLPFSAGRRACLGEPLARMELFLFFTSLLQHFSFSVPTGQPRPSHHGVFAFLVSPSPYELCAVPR
Sequence of hERG (KCNH2) (Q12809 whole entry): as the sequence (Q12809 whole entry) above

SMILES	IC50 [1] [µM]	IC50 [2] [µM]	further results
CSc1nnc(-c2ccc(OCc3cccc(Cl)c3)c(Cl)c2)o1	5.5	81	–
O=C(NC1CCC(O)CC1)c1cc(Cl)c(OCc2cccc(Cl)c2)cn1 (stereo unspecified)	1.5	28	–
Cc1cc(C(=O)N2CCN(C)C(=O)C2)ccc1NS(=O)(=O)c1cccc(Cl)c1	> 64	> 64	–
Nc1nnc(-c2cc(Cl)c(OCc3cccc(Cl)c3)cn2)o1	–	50	–
O=C(NCCN1CCOCC1)c1cc(Cl)c(OCc2cccc(Cl)c2)cn1	8	65	MIC (Haemophilus influenzae [6]): 1 µg/mL (≈ 2.44 µM); MIC (Haemophilus influenzae [7]): 32 µg/mL (≈ 78 µM); MIC (Streptococcus pneumoniae): 8 µg/mL (≈ 19.5 µM)
O=C(NCCCCO)c1ccc(OCc2cc(Cl)ccn2)c(Cl)c1	16	34	–
CN1CCN(C(=O)c2ccc(CS(=O)(=O)c3cccc(Cl)c3)c(Cl)c2)CC1=O	> 64	> 64	–
CCN(CC)CCN(C)S(=O)(=O)c1ccc(OCc2cccc(Cl)c2)c(Cl)c1	1.9	79	–
NC(=O)c1nnc(-c2cc(Cl)c(OCc3cccc(Cl)c3)cn2)o1	2.7	60	–
CC(=O)NC1CCN(Cc2ccc(OCc3ccc(Cl)cc3)c(Cl)c2)C1 (stereo unspecified)	0.24	2.2	CLint scaled [3]: 9.63 mL/min/kg; Activity [4]: Not Active; inhibition at 0.01 µM (hERG (KCNH2)): 89%
Cc1cc(C(=O)N2CCN(C(=O)C3CCCO3)CC2)ccc1OCc1cccc(Cl)c1 (stereo unspecified)	0.067	3.7	CLint scaled [3]: 55.1 mL/min/kg; Papp [4]: 10.8 ×10⁻⁶ cm/s; Ki [5]: 0.0239 µM; Activity (Cytochrome P450 1A2): Not Active; Activity (Cytochrome P450 2C9): Not Active; Activity (Cytochrome P450 2D6): Not Active; Activity (Cytochrome P450 3A4): Not Active
O=C(O)Cc1nnc(-c2ccc(OCc3cccc(Cl)c3)c(Cl)c2)o1	11	110	–
CS(=O)(=O)c1nnc(-c2ccc(OCc3cccc(Cl)c3)c(Cl)c2)o1	2.1	53	MIC (Haemophilus influenzae [6]): 1 µg/mL (≈ 2.5 µM); MIC (Haemophilus influenzae [7]): 32 µg/mL (≈ 80.1 µM); MIC (Streptococcus pneumoniae): > 32 µg/mL
Cc1cc(C(=O)N2CCN(C(=O)C3CCCO3)CC2)ccc1CC(O)c1cccc(Cl)c1 (stereo unspecified)	0.28	11	–
Cn1c(-c2cccc(Cl)c2)nc(=O)c2cc(C(=O)N3CCC(C(N)=O)CC3)ccc21	> 64	> 64	–
CCc1nnc(-c2ccc(OCc3cccc(Cl)c3)c(Cl)c2)o1	11	76	–
Clc1cccc(COc2cnc(-c3nnco3)cc2Cl)c1	12	97	CLint scaled [3]: < 10.1 mL/min/kg; Papp [4]: 5.31 ×10⁻⁶ cm/s; inhibition at 3 µM (CYP1A2): 38%
C[S+]([O-])c1nnc(-c2ccc(OCc3cccc(Cl)c3)c(Cl)c2)o1 (stereo unspecified)	1.5	36	–
CC(CO)NC(=O)c1ccc(OCc2cc(Cl)ccn2)c(Cl)c1 (stereo unspecified)	4.6	43	MIC (Haemophilus influenzae [6]): 2 µg/mL (≈ 5.63 µM); MIC (Haemophilus influenzae [7]): 32 µg/mL (≈ 90.1 µM); MIC (Streptococcus pneumoniae): 32 µg/mL (≈ 90.1 µM)
Cc1cc(C(=O)N2CCN(C)CC2)ccc1C(CO)c1cccc(Cl)c1 (stereo unspecified)	> 64	> 64	–
CN1CCN(C(=O)c2ccc(C[S+]([O-])c3cccc(Cl)c3)c(Cl)c2)CC1=O (stereo unspecified)	2.4	23	–
OCCc1nnc(-c2ccc(OCc3cccc(Cl)c3)c(Cl)c2)o1	3.1	87	–
CN1CCN(C(=O)c2ccc(COc3cccc(Cl)c3)c(Cl)c2)CC1	0.84	–	–
Cc1cc(C(=O)N2CCC(C(N)=O)CC2)ccc1CCc1cccc(Cl)c1	0.36	46	–
O=C(NCC1CC1)c1cc(Cl)c(OCc2cccc(Cl)c2)cn1	30	50	–
NC(=O)Cc1nnc(-c2ccc(OCc3cccc(Cl)c3)c(Cl)c2)o1	1.7	126	–
Cc1ccc(C(=O)N2CCN(S(=O)(=O)c3ccc(OCc4cccc(Cl)c4)c(Cl)c3)CC2)cc1	1.9	12	–
Nc1nnc(-c2ccc(OCc3cccc(Cl)c3)c(Cl)c2)o1	2.3	42	–
CN1CCN(C(=O)c2ccc(S(=O)(=O)Nc3cccc(Cl)c3)c(Cl)c2)CC1=O	> 64	> 64	–
Cc1nnc(-c2ccc(OCc3cccc(Cl)c3)c(Cl)c2)o1	6.6	95	–

Second part, led by results:

IC50 [1] [µM]	IC50 [2] [µM]	SMILES	further results
0.038	1.3	CN1CCN(C(=O)c2ccc(OCc3cccc(Cl)c3)c(Cl)c2)CC1=O	CLint scaled [3]: < 7.6 mL/min/kg; Papp [4]: 16.4 ×10⁻⁶ cm/s; Ki [5]: 0.0372 µM; Activity (Cytochrome P450 1A2): Not Active; Activity (Cytochrome P450 2C9): Not Active; Activity (Cytochrome P450 2D6): Not Active; Activity (Cytochrome P450 3A4): Not Active
57	393	O=C(NCC1CC1)c1ccc(OCc2cccc(Cl)c2)c(Cl)c1	–
2.6	81	NC(=O)c1nnc(-c2ccc(OCc3cccc(Cl)c3)c(Cl)c2)o1	–
3.1	12	COC(=O)c1ccc(OCc2cccc(Cl)c2)cc1	–
29	483	CC(CO)NC(=O)c1ccc(OCc2cccc(Cl)c2)c(Cl)c1 (stereo unspecified)	MIC (Haemophilus influenzae [6]): 4 µg/mL (≈ 11.3 µM); MIC (Haemophilus influenzae [7]): > 32 µg/mL; MIC (Streptococcus pneumoniae): 32 µg/mL (≈ 90.3 µM)
6.5	> 64	COC(=O)c1ccc([C@H](O)[C@@H](O)c2cccc(Cl)c2)c(C)c1	–
0.17	3.5	COC(=O)c1ccc(N(C)Cc2cccc(Cl)c2)c(C)c1	–
0.034	0.097	COC(=O)c1ccc(OCc2cccc(Cl)c2)c(C)c1	–
0.017	0.091	COC(=O)c1ccc(OCc2cccc(Cl)c2)c(Cl)c1	–
0.15	2.3	CN1CCN(C(=O)c2ccc(OCc3cccc(Cl)c3)c(Cl)c2)CC1	–
57	> 64	COC(=O)c1ccc(CNc2cccc(Cl)c2)cc1	–
> 64	> 64	COC(=O)c1ccc(C(=O)Nc2cccc(Cl)c2)cc1	–
0.15	–	Cc1cc(C(=O)N2CCC(C(N)=O)CC2)ccc1OCc1cccc(Cl)c1	–
> 64	> 64	COC(=O)c1ccc([C@@H](O)[C@H](O)c2cccc(Cl)c2)c(C)c1	–
> 64	> 64	COC(=O)c1ccc(CN(C)c2cccc(Cl)c2)cc1	–
0.0087	0.12	COC(=O)c1ccc(OCc2ccc(F)c(F)c2)c(Cl)c1	–
24	34	CCn1nccc1NC(=O)c1cc(Cl)c(OCc2cccc(Cl)c2)cn1	–
14	438	O=C(NCCN1CCOCC1)c1ccc(OCc2cccc(Cl)c2)c(Cl)c1	–
1.3	28	CC(=O)Nc1nnc(-c2ccc(OCc3cccc(Cl)c3)c(Cl)c2)o1	–
0.03	0.16	COC(=O)c1ccc(OCc2cc(F)cc(F)c2)c(Cl)c1	–
3.5	6.1	COC(=O)c1ccc(NCc2cccc(Cl)c2)c(C)c1	–
11	156	Clc1cccc(COc2ccc(-c3nnco3)cc2Cl)c1	–
> 64	> 64	COC(=O)c1ccc(NC(=O)c2cccc(Cl)c2)c(C)c1	–
0.13	0.2	COC(=O)c1ccc(/C=C/c2cccc(Cl)c2)c(C)c1	–
22	254	O=C(NCCCCO)c1ccc(OCc2cccc(Cl)c2)c(Cl)c1	CLint scaled [3]: < 7.6 mL/min/kg; Papp [4]: 1.22 ×10⁻⁶ cm/s; Ki [5]: > 0.1 µM; Activity (Cytochrome P450 1A2): Not Active; Activity (Cytochrome P450 2C9): Not Active; Activity (Cytochrome P450 2D6): Not Active; Activity (Cytochrome P450 3A4): Not Active
